# Laboratory results: patent US20210228523A1, “MODULATORS OF SESTRIN-GATOR2 INTERACTION AND USES THEREOF” (Navitor Pharmaceuticals, Inc., priority 2017, published 2021)
# Tests used:
# mTORC1 = experiment: Western blot of pS6 in rat brain and selected peripheral organs; type: in vivo; settings: Example D; NV-5138 160 mg/kg oral; 1 hr post-dose
# Description: Study Design: Thirty (30) male rats weighing between 175 and 200 g were randomized into 3 study groups (n=10), following a 5-day acclimation period. One hour following dosing rats were sacrificed by conscious decapitation, plasma, brain and selected peripheral tissues were harvested for compound level and WB analysis. Tissues were prepared for WB to quantitate the mTORC1 substrate pS6 as a measure of mTORC1 activity.
# The dosing volume based on the weight of the animal (10 mL/kg) was administered by oral gavage. Test articles were prepared the day of dosing.
# Tissues Preparations: One hour following dosing rats were sacrificed by conscious decapitation, plasma, brain and peripheral tissues were harvested and immediately frozen in liquid nitrogen. Tissues were thawed and homogenized for 1 min twice using MP homogenizer in Lysis Buffer (Cell lysis buffer: 1% Triton X-100, 50 mM HEPES pH 7.4, 100 mM NaCl, 2 mM EDTA, 10 mM Beta-glycerophosphate, 10 mM Sodium pyrophosphate, and 1 protease inhibitor tab per 50 mL fresh) at 4° C. Lysates were then sonicated on ice for 20 s at 50% amplitude. The protein concentration was determined by Bradford assay and all samples were mixed with loading buffer (50 mM Tris-HCl pH 6.8, 2% SDS, 5% glycerol, 5% β-mercaptoethanol and 0.01% Bromophenol blue) and stored at −20° C. until WB analysis.
# Western Blot (WB) Analysis. Equal amounts of each sample (15 μg of total protein) were loaded and separated on NuPAGE 4-12% Bis-Tris gels and transferred to PVDF membrane (Immobilon-FL PVDF membrane, Millipore) using CAPS Buffer (10 mM 3-(Cyclohexylamino)-1-propanesulfonic acid, 12.5% Ethanol pH=10). After transfer, membranes were incubated for 1 hr at room temperature in Odyssey blocking buffer (Licor). After blocking, membranes were incubated at 4° C. overnight with primary antibodies. Primary antibodies used were rabbit anti-[…] (cell signaling; #5364) at 1:1000, mouse anti-GAPDH (Sigma; #G8795) at 1:1000 and mouse anti-a-tubulin (Sigma; #T5168) at 1:10000 in Odyssey blocking buffer. The next day, membranes were washed three times in 1×TBS-Tween (25 mM Tris, pH 7.4, 3.0 mM KCl, 140 mM NaCl and 0.05% Tween-20) and incubated with dye-coupled secondary antibodies (goat anti-mouse IRdye680, and goat anti-rabbit IRdye800 from LI-COR) at 1:20000 in Odyssey blocking buffer for 30 min then wash three times in IX TBS-Tween. Signals were quantified using the Odyssey Infrared Imaging System (LI-COR Bioscience). The resulting densitometric readings were used to generate a ratio of phopho-protein to a-tubulin or GAPDH. The resulting ratio was further normalized to vehicle treated control group.
# Male Sprague Dawley rats = experiment: Sucrose Preference Test (SPT) in non-stressed and chronic unpredictable stress rats; type: in vivo, rat; settings: Example E, NV-5138 160 mg/kg oral single dose, 24 hrs after dosing
# Description: Behavioral Analysis Using the Sucrose Preference Test (SPT): Rats were habituated to a palatable sucrose 1% sucrose solution for 48 hrs to avoid neophobia. Rats were treated with NV-5138 or Veh at the end of day 0 and the SPT was performed 24 hrs post-administration on day 1. For the SPT, rats were deprived of water for 6 hrs and exposed for 60 min to two bottles with equal volumes of 1% sucrose or water. The ratio of the volume of sucrose water consumed to total water consumed during the 1 hr test was defined as sucrose preference (e.g., a ratio of 1 would indicate the rat consumed only 1% sucrose, while a ratio of 0.5 would indicate that the rat drank equal amounts of 1% sucrose and water).
# Chronic Unpredictable Stress (CUS) Conditions: Rats were exposed to a variable sequence of 12 unpredictable stressors, preventing habituation as described (Li, N. et al., Biol Psychiatry 69(8): 754-61 (2011)). […]
# Study Design: Fifty-six (56) male rats weighing between 175 and 200 g were randomized into 4 study groups (n=14/group), following a 5-day acclimation period. […] Crude synaptosomes were prepared from the PFC and the synaptic proteins, GluR1 and PSD95 were quantitated by WB. […]
smiles,measurement,setting,value
CC(C)(C[C@H](N)C(=O)O)C(F)F [NV-5138],level of pS6 in rat epididymal fat,mTORC1,significantly increased
same,level of pS6 in rat heart,mTORC1,significantly increased
same,level of pS6 in rat kidney,mTORC1,significantly increased
same,level of pS6 in rat tibialis anterior,mTORC1,significantly increased
same,pS6 levels in liver,mTORC1,not the liver
same,pS6 levels in rat brain,mTORC1,significant activation of mTORC1
same,pS6 levels in testes,mTORC1,significant activation
same,"SPT, mean ratio of 1% sucrose to water consumption",Male Sprague Dawley rats; CUS rats (Group 4),0.79
same,"SPT, mean ratio of 1% sucrose to water consumption",Male Sprague Dawley rats; non-stressed (NS) rats,0.76
